Values joined by “and” are separate entries in the source; they are usually repeats but may differ in a detail not shown here. Identical values can stand only once. Like-named read-outs stand apart in the source and are kept apart here.
How the values were obtained:
Human Androgen Receptor = Human Androgen Receptor (Homo sapiens (Human), UniProt P10275); test: Androgen receptor assay: [3H]R1881 displacement, cytosol of HEK-293 cells transfected with hAR (hydroxylapatite assay); format: binding; details: for Human Androgen Receptor Binding RBA (%) R1881 = 100: relative binding affinity; for times more potent than OH-flutamide on the human AR (RBA ratio): versus hydroxyflutamide
[1] = tested on: Shionogi mouse mammary carcinoma cells; test: In vitro androgenic/antiandrogenic activity: proliferation of Shionogi cells with or without DHT; format: cell-based
[2] = tested on: castrated (CX) immature male rats; test: Systemic androgenic (agonistic) activity in orchidectomized (CX) immature male rats; format: in vivo, rat; details: 0.1 mg/rat/po, 7 days; for CX Agonistic activity % Stimulation Bulbo: bulbocavernosus muscles weight; for CX Agonistic activity % Stimulation SV: seminal vesicles weight; for CX Agonistic activity % Stimulation Prostate: ventral prostate weight
Procedure: Immature male rats (Crl:CD(SD)Br) 22 to 24-day old weighting 60-80 g at start of treatment were obtained from Charles-River, Inc. (St-Constant, Quebec, Canada) and housed up to 5 per cage in plastic bins in a temperature (23±1° C.)- and light (12 h light/day, lights on at 7 h15)-controlled environment. The rats were fed rodent chow and tap water ad libitum. […] The day following their arrival, the designed animals were orchidectomized (CX) under Isoflurane anesthesia (Study Day 1) via the scrotal route and were then randomly assigned to groups of 3 to 5 animals. At the time of orchidectomy, one silastic implant of dihydrotestosterone (DHT; 1 cm length of pure DHT in silastic tubing having inner and outer diameter of 0.078 and 0.125 inches, respectively), was inserted subcutaneously in the dorsal area of animals assigned to the evaluation of antiandrogenic activity. In the case of intact animal experiments, the orchidectomy and the silastic implant installation are omitted.
Tested compounds were administered orally once daily for 7 days from Study Day 2 to Study Day 8 at doses generally ranging from 0.1 and 0.5 mg/animal. Compounds were either solubilized in dimethylsulfoxide (DMSO, 10% final concentration) and were administered as a solution/suspension in 0.9% NaCl-1% gelatin or were administered as suspensions in 0.4% aqueous methylcellulose. Animals of the control groups received the corresponding vehicle alone during the 7-day period. Some animals were treated with the antiandrogen Flutamide or Casodex as reference. The animals under isoflurane anesthesia were killed by cervical dislocation on day 9 of the study, approximately 24 h after the last dosing. The ventral prostate, seminal vesicles and bulbocavernosus muscles were rapidly dissected and weighed.
For calculations with intact animals, control DHT is replaced by control intact and the % stimulation is subtracted by 100%. W is the weight of the prostate, seminal vesicles or bulbocavernosus muscles. Discussion

[3] = Mus musculus, read-out: Shionogi Antiandrogenic Activity IC50, DHT (0.3 nM)-stimulated cell number

Sequence of Human Androgen Receptor (P10275 whole entry): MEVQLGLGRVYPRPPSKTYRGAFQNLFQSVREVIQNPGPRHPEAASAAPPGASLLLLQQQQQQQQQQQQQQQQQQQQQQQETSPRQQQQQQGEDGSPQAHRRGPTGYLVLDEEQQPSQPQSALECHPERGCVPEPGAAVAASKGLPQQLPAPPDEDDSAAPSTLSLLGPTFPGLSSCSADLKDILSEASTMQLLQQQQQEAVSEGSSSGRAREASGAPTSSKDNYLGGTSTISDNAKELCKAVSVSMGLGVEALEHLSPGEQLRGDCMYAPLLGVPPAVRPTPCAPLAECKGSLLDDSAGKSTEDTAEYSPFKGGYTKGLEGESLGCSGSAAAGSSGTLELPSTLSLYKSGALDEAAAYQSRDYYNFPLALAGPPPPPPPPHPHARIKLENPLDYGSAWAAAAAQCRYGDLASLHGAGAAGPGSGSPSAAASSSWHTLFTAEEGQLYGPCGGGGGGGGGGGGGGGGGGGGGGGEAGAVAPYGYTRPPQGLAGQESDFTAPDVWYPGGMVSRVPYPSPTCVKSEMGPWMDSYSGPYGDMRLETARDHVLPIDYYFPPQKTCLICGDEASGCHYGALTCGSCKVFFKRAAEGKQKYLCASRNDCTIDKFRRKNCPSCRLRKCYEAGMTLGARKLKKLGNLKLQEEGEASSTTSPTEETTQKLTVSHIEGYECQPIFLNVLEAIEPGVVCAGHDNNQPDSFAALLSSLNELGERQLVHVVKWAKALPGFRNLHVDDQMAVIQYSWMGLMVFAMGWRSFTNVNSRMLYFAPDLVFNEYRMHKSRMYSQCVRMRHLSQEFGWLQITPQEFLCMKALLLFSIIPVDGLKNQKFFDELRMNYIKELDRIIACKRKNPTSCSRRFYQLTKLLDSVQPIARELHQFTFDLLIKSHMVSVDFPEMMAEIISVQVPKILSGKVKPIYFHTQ

| Compound | Human Androgen Receptor Binding RBA (%) R1881 = 100 (Human Androgen Receptor; […]) | IC50 [1, 3] [nM] | CX Agonistic activity % Stimulation Bulbo [2] | CX Agonistic activity % Stimulation SV [2] | CX Agonistic activity % Stimulation Prostate [2] | Human Androgen Receptor Binding RBA (%) R1881 = 100 (Human Androgen Receptor; transfected cells) | also measured |
| --- | --- | --- | --- | --- | --- | --- | --- |
| Cc1ccc2cc(OCCCN3C(=O)N(c4ccc(C#N)c(C(F)(F)F)c4)C(=O)C3(C)C)ccc2[n+]1[O-] [EM-9093] | 0.6% | 23.1 | 9% | 0% | 0% | – | – |
| Cc1c(N2C(=O)N(CCCOc3ccc(-c4ccncc4)c(Cl)c3)C(C)(C)C2=O)ccc(C#N)c1Cl [EM-9290] | – | 64.8 | 88±2% and 88 ± 12 (n = 2) % | 16 ± 2 (n = 2) % | 39 ± 6 (n = 2) % | 197% | times more potent than OH-flutamide on the human AR (RBA ratio) (Human Androgen Receptor): 938 times; % of stimulation at 10^−7M on basal Shionogi cells ([1]; basal (no DHT), 10^−7M): 25% |
| Cc1c(N2C(=O)C(C)(C)N(CCCOc3ccc(-c4ccncc4)c(Cl)c3)C2=S)ccc(C#N)c1Cl [EM-8887] | 1890 ± 1040 (n = 2) % | 133 | 214% | 107% | 55% | – | – |
| Cc1c(N2C(=O)N(CCCOc3ccc(-c4cc[n+]([O-])cc4F)cc3)C(C)(C)C2=O)ccc(C#N)c1Cl [EM-9318] | – | 100 | 92 ± 27 (n = 2) % | 14 ± 9 (n = 2) % | 42 ± 3 (n = 2) % | 46.1% | – |
| Cc1c(N2C(=O)C(C)(C)N(CCCOc3ccc4ncccc4c3)C2=S)ccc(C#N)c1Cl [EM-8728] | 125.4% | 53.4 | 98% | 25% | 48% | – | – |
| CC1(C)C(=O)N(c2ccc(C#N)c(C(F)(F)F)c2)C(=S)N1CCCOc1ccc2c(ccc[n+]2[O-])c1 [EM-9028] | – | 2.6 | 1% | 2% | 2% | 25.3% | stimulation at 10^−7M on basal Shionogi cell proliferation (in words) ([1]; basal (no DHT), 10^−7M): none of these compounds has any activity |
| Cc1c(N2C(=O)C(C)(C)N(CCCOc3ccc(-c4ccncc4)c(F)c3)C2=S)ccc(C#N)c1Cl [EM-8796] | 698% | 188 | 168% | 127% | 58% | – | – |
| Cc1c(N2C(=O)C(C)(C)N(CCCOc3ccc(-c4ccncc4)cn3)C2=S)ccc(C#N)c1Cl [EM-8815] | – | 80 | 163% | 75% | 59% | 159% | – |
| Cc1c(N2C(=O)C(C)(C)N(CCCOc3ccc(-c4ccccn4)cc3F)C2=S)ccc(C#N)c1Cl [EM-8715] | 155% | 57.3 | 58% | 11% | 35% | – | – |
| CC1(C)C(=O)N(c2ccc(C#N)c(C(F)(F)F)c2)C(=S)N1CCCOc1ccc2ncccc2c1 [EM-8990] | 53.6% | 9.7 | 3% | 1% | 0% | – | – |
| Cc1c(N2C(=O)C(C)(C)N(CCCOc3ccc(-c4ccncc4)cc3Cl)C2=S)ccc(C#N)c1Cl [EM-8799] | 877% | 116 | 126% | 55% | 58% | – | – |
| Cc1c(N2C(=O)N(CCCOc3ccc(-c4cc[n+]([O-])cc4)cc3)C(C)(C)C2=O)ccc(C#N)c1Cl [EM-9305] | 26.2% | 32.3 | 110 ± 5 (n = 2) % | 28 ± 3 (n = 2) % | 34 ± 5 (n = 2) % | – | – |
| CC1(C)C(=O)N(c2ccc(C#N)c(C(F)(F)F)c2)C(=O)N1CCCOc1ccc(-c2cc[n+]([O-])cc2)cc1 [EM-9000] | 1.5 ± 0.3 (n = 2) % | 20 ± 10 | – | – | – | – | – |
| Cc1c(N2C(=O)N(c3ccc(-c4ccncc4)cc3)C(C)(C)C2=O)ccc(C#N)c1C(F)(F)F [EM-9344] | 0.8% | 51 | – | – | – | – | – |
| CC1(C)C(=O)N(c2ccc(C#N)c(C(F)(F)F)c2)C(=O)N1Cc1ccc(-c2cc[n+]([O-])cc2)c(F)c1 [EM-9228] | 0.4% | 53 | – | – | – | – | – |
| CC1(C)C(=O)N(c2ccc(C#N)c(C(F)(F)F)c2)C(=O)N1Cc1ccc(-c2cccnc2)cc1 [EM-9200] | – | 66 | – | – | – | 2.5% | – |
| Cc1c(N2C(=O)N(Cc3ccc(-c4cc[n+]([O-])cc4)cc3)C(C)(C)C2=O)ccc(C#N)c1Cl [EM-9345] | – | ~80 | – | – | – | 0.5% | – |

| Compound | Human Androgen Receptor Binding RBA (%) R1881 = 100 (Human Androgen Receptor; […]) | IC50 [1, 3] [nM] | CX Agonistic activity % Stimulation Bulbo [2] | CX Agonistic activity % Stimulation SV [2] | CX Agonistic activity % Stimulation Prostate [2] | Human Androgen Receptor Binding RBA (%) R1881 = 100 (Human Androgen Receptor; transfected cells) | also measured |
| --- | --- | --- | --- | --- | --- | --- | --- |
| CC1(C)C(=O)N(c2ccc(C#N)c(C(F)(F)F)c2)C(=S)N1CCCOc1ccc(-c2ccncc2)cn1 [EM-9050] | 317 ± 122 (n = 2) % | 12 ± 2 | – | – | – | – | – |
| CC1(C)C(=O)N(c2ccc(C#N)c(Cl)c2)C(=S)N1CCCOc1ccc(-c2ccncc2)cc1 [EM-9039] | 762 ± 396 (n = 2) % | 2.6 to 4.3 | – | – | – | – | stimulation at 10^−7M on basal Shionogi cell proliferation (in words) ([1]; basal (no DHT), 10^−7M): none of these compounds has any activity; IC50 ([1]; read-out: Shionogi Antiandrogenic Activity IC50, DHT (0.3 nM)-stimulated cell number): 4.3 nM |
| CC1(C)C(=O)N(c2ccc(C#N)c(C(F)(F)F)c2)C(=S)N1CCCOc1ccc(-c2ccncc2)c(C(F)(F)F)c1 [EM-8890] | – | 13.2 | – | – | – | 59 ± 25 (n = 2) % | – |
| Cc1c(N2C(=O)N(CCCOc3ccc(-c4ccncc4)c(F)c3)C(C)(C)C2=O)ccc(C#N)c1F [EM-9205] | – | 14.8 | – | – | – | 17.9% | times more potent than OH-flutamide on the human AR (RBA ratio) (Human Androgen Receptor): 85 times; fold more potent than OH-flutamide in reversing DHT-stimulated Shionogi cell proliferation ([1]; versus hydroxyflutamide): 2.3 fold |
| CC1(C)C(=O)N(c2ccc(C#N)c(C(F)(F)F)c2)C(=O)N1Cc1ccc(-c2ccncc2)c(F)c1 [EM-9227] | 4.9% | 16.4 | – | – | – | – | – |
| CC1(C)C(=O)N(c2ccc(C#N)c(Cl)c2)C(=O)N1CCCOc1ccc(-c2ccncc2F)cc1 [EM-9267] | – | 16 | – | – | – | 5.5% | – |
| CC1(C)C(=O)N(c2ccc(C#N)c(C(F)(F)F)c2)C(=S)N1CCCOc1ccc(-c2ccncc2)c(F)c1 [EM-8851] | – | 77 ± 20 | – | – | – | 3310% and 3310 ± 1780 (n = 2) % | – |
| CC1(C)C(=O)N(c2ccc(C#N)c(F)c2)C(=S)N1CCCOc1ccc(-c2ccncc2)cc1 [EM-9025] | – | – | – | – | – | 39% | stimulation at 10^−7M on basal Shionogi cell proliferation (in words) ([1]; basal (no DHT), 10^−7M): none of these compounds has any activity |
| CC1(C)C(=O)N(c2ccc(C#N)c(Cl)c2)C(=O)N1CCCOc1ccc(-c2cc[n+]([O-])cc2)cc1 [EM-9118] | 2.2 ± 0.4 (n = 6) % | 15 ± 3 | – | – | – | – | – |
| CC1(C)C(=O)N(c2ccc(C#N)c(C(F)(F)F)c2)C(=O)N1Cc1ccc(-c2ccncc2)cc1 [EM-9199] | – | 27 | – | – | – | 2.3% | – |
| CC1(C)C(=O)N(c2ccc(C#N)c(C(F)(F)F)c2)C(=O)N1CCCOc1ccc(-c2ccncc2)cc1F [EM-9055] | – | 10.6 | – | – | – | 7.3% | – |
| CC1(C)C(=O)N(c2ccc(C#N)c(C(F)(F)F)c2)C(=O)N1c1ccc(-c2ccncc2)cc1 [EM-9340] | – | – | – | – | – | 0.2% | IC50 ([1]; Mus musculus, DHT (0.3 nM)-stimulated cell number, read-out: Shionogi Antiandrogenic Activity IC50): 126 nM |
| CC1(C)C(=O)N(c2ccc(C#N)c(C(F)(F)F)c2)C(=S)N1CCCCOc1ccc(-c2cccnc2)cc1 [EM-9070] | – | 14.9 | – | – | – | 191% | – |
| CC1(C)C(=O)N(c2ccc(C#N)c(F)c2)C(=S)N1CCCOc1ccc(-c2ccncc2)c(F)c1 [EM-9011] | – | 6.6 ± 0.8 | – | – | – | 43 ± 9 (n = 2) % | – |
| CC1(C)C(=O)N(c2ccc(C#N)c(C(F)(F)F)c2)C(=S)N1CCCOc1ccc(-c2cccnc2)cc1 [EM-8840] | 1090 ± 500 (n = 2) % | 24 ± 6 | – | – | – | – | – |
| CC1(C)C(=O)N(c2ccc(C#N)c(C(F)(F)F)c2)C(=O)N1CCCOc1ccc(-c2cc[n+]([O-])cc2)c(F)c1 [EM-9067] | – | 12 | – | – | – | 2.4% | – |

From patent US9682960B2 (priority 2013, dated 2017)
